# Data as given in ChEMBL document CHEMBL1201862, “PubChem BioAssay data set” (2004).
#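 These data come from cells grown in 96-well plates and exposed to compound for 48 hours at five concentrations. Here, GI50 denotes the concentration required for 50% inhibition of growth.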 Active and inactive are the calls of the source. Rule as the data show it: active = GI50 up to about 1.1 µM and inactive = higher.
# Key:
# Assay in all cases: NCI-60 cell line screen, 48 h
# OVCAR-5 = system: OVCAR-5
# UO-31 = system: UO-31
# OVCAR-4 = system: OVCAR-4
# NCI-H226 = system: NCI-H226
# TK-10 = system: TK-10
# NCI/ADR-RES = system: NCI/ADR-RES
# LOX IMVI = system: LOX IMVI
# K562 = system: K562
# MOLT-4 = system: MOLT-4
# RPMI-8226 = system: RPMI-8226
# UACC-62 = system: UACC-62
# OVCAR-3 = system: OVCAR-3
# CCRF-CEM = system: CCRF-CEM
# SNB-19 = system: SNB-19
# SF-295 = system: SF-295
# SF-539 = system: SF-539
# HOP-62 = system: HOP-62
# T47D = system: T47D
# MDA-MB-435 = system: MDA-MB-435
# HOP-92 = system: HOP-92
# NCI-H460 = system: NCI-H460
# ACHN = system: ACHN
# SNB-75 = system: SNB-75
# OVCAR-8 = system: OVCAR-8
# SW-620 = system: SW-620
# DU-145 = system: DU-145
# SN12C = system: SN12C
# SK-OV-3 = system: SK-OV-3
# NCI-H23 = system: NCI-H23
# HL-60 = system: HL-60
# COLO 205 = system: COLO 205
# Malme-3M = system: Malme-3M
# RXF 393 = system: RXF 393
# A498 = system: A498
# HCC 2998 = system: HCC 2998
# HT-29 = system: HT-29
# SF-268 = system: SF-268
# MDA-MB-231 = system: MDA-MB-231
# MCF7 = system: MCF7
# SK-MEL-5 = system: SK-MEL-5
# A549 = system: A549
# PC-3 = system: PC-3
# CAKI-1 = system: CAKI-1
# IGROV-1 = system: IGROV-1
# SR = system: SR
# UACC-257 = system: UACC-257
# MDA-N = system: MDA-N
# HCT-116 = system: HCT-116
# EKVX = system: EKVX
# M14 = system: M14
# SK-MEL-28 = system: SK-MEL-28
# KM12 = system: KM12
# NCI-H522 = system: NCI-H522
# Hs-578T = system: Hs-578T
# 786-0 = system: 786-0
# SK-MEL-2 = system: SK-MEL-2
# U-251 = system: U-251
# HCT-15 = system: HCT-15
smiles,measurement,setting,value
CC(C)=CCNc1nc(Cl)nc2[nH]cnc12,GI50,OVCAR-5,> 100 µM (inactive)
same,GI50,UO-31,37.4 µM (inactive)
same,GI50,OVCAR-4,54.1 µM (inactive)
same,GI50,NCI-H226,> 100 µM (inactive)
same,GI50,TK-10,71.6 µM (inactive)
same,GI50,NCI/ADR-RES,35.7 µM (inactive)
same,GI50,LOX IMVI,> 100 µM (inactive)
same,GI50,K562,32.1 µM (inactive)
same,GI50,MOLT-4,84.9 µM (inactive)
same,GI50,RPMI-8226,> 100 µM (inactive)
same,GI50,UACC-62,> 100 µM (inactive)
same,GI50,OVCAR-3,> 100 µM (inactive)
same,GI50,CCRF-CEM,76.6 µM (inactive)
same,GI50,SNB-19,29 µM (inactive)
same,GI50,SF-295,42.6 µM (inactive)
same,GI50,SF-539,> 100 µM (inactive)
same,GI50,HOP-62,27.9 µM (inactive)
same,GI50,T47D,92 µM (inactive)
same,GI50,MDA-MB-435,> 100 µM (inactive)
same,GI50,HOP-92,35 µM (inactive)
same,GI50,NCI-H460,16.7 µM (inactive)
same,GI50,ACHN,54.1 µM (inactive)
same,GI50,SNB-75,> 100 µM (inactive)
same,GI50,OVCAR-8,46.5 µM (inactive)
same,GI50,SW-620,> 100 µM (inactive)
same,GI50,DU-145,> 100 µM (inactive)
same,GI50,SN12C,57.7 µM (inactive)
same,GI50,SK-OV-3,16.4 µM (inactive)
same,GI50,NCI-H23,56.6 µM (inactive)
same,GI50,HL-60,> 100 µM (inactive)
same,GI50,COLO 205,> 100 µM (inactive)
same,GI50,Malme-3M,86.9 µM (inactive)
same,GI50,RXF 393,25.2 µM (inactive)
same,GI50,A498,44 µM (inactive)
same,GI50,HCC 2998,> 100 µM (inactive)
same,GI50,HT-29,> 100 µM (inactive)
same,GI50,SF-268,55 µM (inactive)
same,GI50,MDA-MB-231,21.5 µM (inactive)
same,GI50,MCF7,29.6 µM (inactive)
same,GI50,SK-MEL-5,29.3 µM (inactive)
same,GI50,A549,28.8 µM (inactive)
same,GI50,PC-3,> 100 µM (inactive)
same,GI50,CAKI-1,> 100 µM (inactive)
same,GI50,IGROV-1,> 100 µM (inactive)
same,GI50,SR,37 µM (inactive)
same,GI50,UACC-257,27.1 µM (inactive)
same,GI50,MDA-N,> 100 µM (inactive)
same,GI50,HCT-116,24.7 µM (inactive)
same,GI50,EKVX,15.7 µM (inactive)
same,GI50,M14,> 100 µM (inactive)
same,GI50,SK-MEL-28,> 100 µM (inactive)
same,GI50,KM12,> 100 µM (inactive)
same,GI50,NCI-H522,> 100 µM (inactive)
same,GI50,Hs-578T,62.8 µM (inactive)
same,GI50,786-0,49.4 µM (inactive)
C[C@@H]1C(=O)O[C@@H]2C[C@@]1(C)[C@@H]1C(=O)C3(O)OC14C2(C)OC(=O)[C@@]4(O)CCC1C3C(O)C=C2CC=CC(=O)[C@@]21C (stereo not given in full),GI50,OVCAR-5,25.5 µM (inactive)
same,GI50,UO-31,22.5 µM (inactive)
same,GI50,OVCAR-4,27.8 µM (inactive)
same,GI50,TK-10,36.9 µM (inactive)
same,GI50,NCI/ADR-RES,> 100 µM (inactive)
same,GI50,K562,23.9 µM (inactive)
same,GI50,MOLT-4,20.7 µM (inactive)
same,GI50,RPMI-8226,19.7 µM (inactive)
same,GI50,UACC-62,22 µM (inactive)
same,GI50,CCRF-CEM,13.6 µM (inactive)
same,GI50,SNB-19,3.24 µM (inactive)
same,GI50,SF-295,33.3 µM (inactive)
same,GI50,SF-539,25.3 µM (inactive)
same,GI50,HOP-62,63.5 µM (inactive)
same,GI50,T47D,31.3 µM (inactive)
same,GI50,MDA-MB-435,20.4 µM (inactive)
same,GI50,NCI-H460,29.9 µM (inactive)
same,GI50,ACHN,53.6 µM (inactive)
same,GI50,SNB-75,15.7 µM (inactive)
same,GI50,OVCAR-8,31.3 µM (inactive)
same,GI50,SW-620,40.2 µM (inactive)
same,GI50,DU-145,30.3 µM (inactive)
same,GI50,SK-MEL-2,17.9 µM (inactive)
same,GI50,SN12C,41.2 µM (inactive)
same,GI50,SK-OV-3,47 µM (inactive)
same,GI50,HL-60,13.4 µM (inactive)
same,GI50,COLO 205,34 µM (inactive)
same,GI50,RXF 393,13.8 µM (inactive)
same,GI50,HCC 2998,39.1 µM (inactive)
same,GI50,HT-29,34 µM (inactive)
same,GI50,SF-268,26.7 µM (inactive)
same,GI50,MDA-MB-231,28.8 µM (inactive)
same,GI50,MCF7,36.3 µM (inactive)
same,GI50,SK-MEL-5,33 µM (inactive)
same,GI50,A549,40.8 µM (inactive)
same,GI50,PC-3,36 µM (inactive)
same,GI50,CAKI-1,21.3 µM (inactive)
same,GI50,IGROV-1,42.3 µM (inactive)
same,GI50,U-251,30.8 µM (inactive)
same,GI50,SR,18.2 µM (inactive)
same,GI50,UACC-257,31 µM (inactive)
same,GI50,MDA-N,28.9 µM (inactive)
same,GI50,HCT-116,20.7 µM (inactive)
same,GI50,EKVX,40.6 µM (inactive)
same,GI50,M14,21.6 µM (inactive)
same,GI50,SK-MEL-28,22.2 µM (inactive)
same,GI50,KM12,26.6 µM (inactive)
same,GI50,HCT-15,34.4 µM
same,GI50,Hs-578T,20.9 µM (inactive)
same,GI50,786-0,33.1 µM (inactive)
